Experimental findings from ChEMBL document CHEMBL1126419 (Bioorg Med Chem Lett, 1992) are described below.

SMILES strings stand for the structures.

In this assay the target is cAMP-dependent protein kinase (PKA) (Homo sapiens, UniProt P22694+P17612+P22612). In words: Inhibition of protein kinase A. It is filed as protein assay.
The term IC50 denotes the midpoint of a concentration-inhibition curve. Regarding `O=C1NC(O)c2c1c1c3ccccc3[nH]c1c1[nH]c3ccccc3c21` (centres undefined), the IC50 stood at 34 µM.

As to `O=C1NC(=O)c2c1c1c3ccccc3[nH]c1c1[nH]c3ccccc3c21` [STAUROSPORINE AGLYCON], the IC50 was found to be 60 µM.

`O=C1NCc2c1c1c3ccccc3[nH]c1c1[nH]c3ccccc3c21` [STAUROSPORINONE] gave an IC50 of 25.7 µM. Compared with the last compound, the IC50 is about 2.3-fold lower.

Regarding `O=C1NC(=O)c2c1c1c3cccc(Cl)c3[nH]c1c1[nH]c3c(Cl)cccc3c21`, the IC50 is > 100 µM.
